From article PMC3813382 (The Journal of General Physiology, 2013) come the findings set out here.

Positions count from the first letter of the chain named.

One test deals with T1, A266G Slo2.1 channels (Homo sapiens, UniProt Q6UVM3, A266G).
T1 sequence (Q6UVM3 1-1135 A266G): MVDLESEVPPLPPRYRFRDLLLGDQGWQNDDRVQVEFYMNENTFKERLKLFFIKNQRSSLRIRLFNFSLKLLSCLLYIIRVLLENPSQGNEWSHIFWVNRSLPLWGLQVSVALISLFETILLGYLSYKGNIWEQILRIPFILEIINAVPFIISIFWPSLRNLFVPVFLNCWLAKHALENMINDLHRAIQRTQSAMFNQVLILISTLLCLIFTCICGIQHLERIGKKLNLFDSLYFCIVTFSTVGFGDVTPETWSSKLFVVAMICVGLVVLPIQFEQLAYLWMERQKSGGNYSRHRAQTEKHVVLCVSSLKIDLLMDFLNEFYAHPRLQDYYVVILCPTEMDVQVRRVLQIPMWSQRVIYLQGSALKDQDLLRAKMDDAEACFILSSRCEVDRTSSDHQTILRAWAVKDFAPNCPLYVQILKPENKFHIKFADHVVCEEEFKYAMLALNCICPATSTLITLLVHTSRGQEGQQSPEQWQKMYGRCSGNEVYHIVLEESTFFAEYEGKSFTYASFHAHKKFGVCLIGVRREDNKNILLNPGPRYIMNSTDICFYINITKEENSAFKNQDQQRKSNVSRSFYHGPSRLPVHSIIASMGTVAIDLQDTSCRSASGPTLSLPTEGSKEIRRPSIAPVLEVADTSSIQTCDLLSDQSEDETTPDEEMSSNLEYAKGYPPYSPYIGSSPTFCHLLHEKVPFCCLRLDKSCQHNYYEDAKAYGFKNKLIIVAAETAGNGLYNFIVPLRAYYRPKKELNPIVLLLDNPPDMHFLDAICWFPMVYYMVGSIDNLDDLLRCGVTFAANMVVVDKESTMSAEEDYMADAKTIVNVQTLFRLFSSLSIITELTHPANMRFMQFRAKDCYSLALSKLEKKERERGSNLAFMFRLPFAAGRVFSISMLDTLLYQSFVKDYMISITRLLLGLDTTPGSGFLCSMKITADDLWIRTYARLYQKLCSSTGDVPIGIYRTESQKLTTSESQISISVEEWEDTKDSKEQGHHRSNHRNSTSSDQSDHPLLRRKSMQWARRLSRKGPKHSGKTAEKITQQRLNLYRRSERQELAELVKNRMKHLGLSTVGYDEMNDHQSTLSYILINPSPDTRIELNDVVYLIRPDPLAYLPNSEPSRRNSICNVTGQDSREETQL
Briefly: Activation of ISlo2.1 by NFA, two-electrode voltage clamp in oocytes. It counts as cell-based. On the technique in general: Two-electrode voltage clamp is typically applied to oocytes expressing channels or transporters.

In another test the target is T2, M262A Slo2.1 channels (Homo sapiens, UniProt Q6UVM3, M262A).
T2 sequence (Q6UVM3 1-1135 M262A): T1 sequence (Q6UVM3 1-1135 A266G) with M262A, G266A
The test is described as above. It counts as cell-based.

Usually EC50 stands for the midpoint of the concentration-response curve. Low values mean higher potency in that assay, high ones lower potency in that assay. Consider `O=C(O)c1cccnc1Nc1cccc(C(F)(F)F)c1` [NFA, niflumic acid], for which the EC50 on A266G Slo2.1 channels amounted to 380 ± 30 µM; on M262A Slo2.1 channels, 660 ± 130 µM. The “Hill coefficient nH of NFA activation” value at A266G Slo2.1 channels (A266G) is 1.2 ± 0.03; on M262A Slo2.1 channels (M262A), 1.4 ± 0.06.
